Laboratory results from patent publication US8722849B2, “Polypeptides” (Novo Nordisk A/S, priority 2011, dated 2014).
Values after ≈ are worked out from the molar mass of the structure shown. Where two headings read alike, the source gives them in different places. Starred links: 1 amine or outer side, 2 acyl side, 3 side chain; linkers in the order of their positions; H or OH if unused. Positions of bridges follow the written chain, without caps; N, C: chain ends. Residues, ends and D or L forms follow the SMILES beside them. Groups on a side chain read outwards from the residue. *: point of attachment. C20 diacid = O=C(O)CCCCCCCCCCCCCCCCCCC(=O)*; C18 diacid = O=C(O)CCCCCCCCCCCCCCCCC(=O)*; γGlu = O=C(O)[C@H](CCC(=O)[*:2])N[*:1]; AEEA = NCCOCCOCC(=O)O

Tests used:
[1] = Assay (III) ThT fibrillation assay for physical stability; format: physicochemical
Method in brief: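 Freshly prepared formulations, pH-adjusted, with 1 μM ThT; four or eight replicates incubated at 37 °C under 960 rpm orbital shaking. Fluorescence (ex 444/em 485 nm) read every 20 min; […]. Peptide concentration measured by RP-HPLC before and after the run.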

[2] = biological target: T1, human amylin receptor (amylin 3(a) receptor: human calcitonin receptor + RAMP-3) (Homo sapiens, UniProt O60896+P30988); assay: Assay (II)a functional CRE-luciferase assay, human amylin receptor; format: cell-based; settings: Table 2; BHK amylin 3(a)-receptor/CRE-luc cells
T1 construct: expressed in transfected cells; host or cells: BHK570
T1 sequence (P30988 25-474): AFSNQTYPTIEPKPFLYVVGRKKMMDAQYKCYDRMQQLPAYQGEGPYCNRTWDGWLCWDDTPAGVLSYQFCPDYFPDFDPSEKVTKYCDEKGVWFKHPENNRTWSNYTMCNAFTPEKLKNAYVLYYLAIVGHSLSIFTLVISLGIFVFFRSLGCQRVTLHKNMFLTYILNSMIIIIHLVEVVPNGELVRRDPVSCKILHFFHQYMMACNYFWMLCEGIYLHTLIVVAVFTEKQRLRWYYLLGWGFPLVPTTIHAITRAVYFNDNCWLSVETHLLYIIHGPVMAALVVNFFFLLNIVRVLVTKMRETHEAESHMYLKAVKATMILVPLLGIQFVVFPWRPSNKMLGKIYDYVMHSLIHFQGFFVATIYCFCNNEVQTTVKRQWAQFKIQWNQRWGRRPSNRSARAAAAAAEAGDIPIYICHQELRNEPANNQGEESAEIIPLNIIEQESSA
T1 sequence (O60896 24-148 partner): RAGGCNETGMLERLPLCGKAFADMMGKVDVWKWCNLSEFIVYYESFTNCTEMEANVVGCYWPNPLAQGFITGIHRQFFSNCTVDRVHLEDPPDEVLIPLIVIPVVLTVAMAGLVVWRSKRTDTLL

[3] = Assay (IV) determination of solubility; format: physicochemical
Method in brief: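 Solubility is measured across pH 3.0–8.0 by mixing a ~500 nmol/ml aqueous polypeptide stock 1:1 with 100 mM glycylglycine or bistrispropane buffers. Samples stand 18 hours at room temperature, then are centrifuged and the soluble concentration is determined by HPLC.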

[4] = biological target: T2, human calcitonin receptor (Homo sapiens, UniProt P30988); assay: Assay (II)a functional CRE-luciferase assay, human calcitonin receptor; format: cell-based; settings: Table 7; human calcitonin (CTa) receptor
T2 construct: expressed in transfected cells; host or cells: BHK570
T2 sequence (P30988 25-474): T1 sequence (P30988 25-474)

[5] = bistrispropane buffer, pH 6, pH 6.0, read-out: Solubility pH 6.0
[6] = bistrispropane buffer, pH 6.5, pH 6.5, read-out: Solubility pH 6.5
[7] = bistrispropane buffer, pH 7, pH 7.0, 18 hours at room temperature, Table 3, read-out: Solubility pH 7.0
[8] = bistrispropane buffer, pH 7, pH 7.0, read-out: Solubility pH 7.0
[9] = bistrispropane buffer, pH 7.5, pH 7.5, read-out: Solubility pH 7.5
[10] = bistrispropane buffer, pH 8, pH 8.0, read-out: Solubility pH 8.0
[11] = glycylglycine buffer, pH 3, pH 3.0, read-out: Solubility pH 3.0
[12] = glycylglycine buffer, pH 4, pH 4.0, 18 hours at room temperature, Table 2, read-out: Solubility pH 4.0
[13] = glycylglycine buffer, pH 4, pH 4.0, read-out: Solubility pH 4.0
[14] = glycylglycine buffer, pH 5, pH 5.0, read-out: Solubility pH 5.0

Row | ThT pH 4.0 lag time (h) ([1]; ThT fibrillation assay) | EC50 [2] [nM] | solubility at 18 h [3, 5] [µM] | solubility at 18 h [3, 6] [µM] | solubility at 18 h [3, 7] [µM] | solubility at 18 h [3, 8] [µM] | solubility at 18 h [3, 9] [µM] | solubility at 18 h [3, 10] [µM] | solubility at 18 h [3, 11] [µM] | solubility at 18 h [3, 12] [µM] | solubility at 18 h [3, 13] [µM] | solubility at 18 h [3, 14] [µM] | EC50 [4] [nM] | ThT pH 4.0 lag time ([1]; Table 8) [h] | ThT pH 4.0 lag time ([1]; ThT fibrillation assay) [h] | solubility at 18 h ([3]; bistrispropane buffer, pH 7, pH 7.0, Table 8, read-out: Solubility pH 7.0) [µM] | solubility at 18 h ([3]; pH 8.0, read-out: Solubility pH 8.0) [µM] | SMILES
1 | 16 | 0.0565 | > 200 | > 200 | > 200 | > 200 | > 200 | > 200 | > 200 | > 200 | > 200 | > 200 | 0.077 | – | – | – | – | CC[C@H](C)[C@H](NC(=O)[C@@H]1CCCN1C(=O)CNC(=O)[C@H](Cc1ccccc1)NC(=O)[C@H](CC(N)=O)NC(=O)[C@H](CC(N)=O)NC(=O)[C@H](CO)NC(=O)[C@H](CO)NC(=O)[C@H](CCCNC(=N)N)NC(=O)[C@H](Cc1c[nH]cn1)NC(=O)[C@H](CC(C)C)NC(=O)[C@H](Cc1ccccc1)NC(=O)[C@H](CCC(=O)O)NC(=O)[C@H](C)NC(=O)[C@H](CC(C)C)NC(=O)[C@H](CCCNC(=N)N)NC(=O)[C@H](CCC(N)=O)NC(=O)[C@@H](NC(=O)[C@H](C)NC(=O)[C@@H]1CSSC[C@H](NC(=O)[C@H](CCCCN)NC(=O)CC[C@H](NC(=O)CCCCCCCCCCCCCCCCCCC(=O)O)C(=O)O)C(=O)N[C@@H](CC(N)=O)C(=O)N[C@@H]([C@@H](C)O)C(=O)N[C@@H](C)C(=O)N[C@@H]([C@@H](C)O)C(=O)N1)[C@@H](C)O)C(=O)N[C@@H](CC(C)C)C(=O)N1CCC[C@H]1C(=O)N1CCC[C@H]1C(=O)N[C@H](C(=O)N[C@@H](CC(N)=O)C(=O)N[C@H](C(=O)NCC(=O)N[C@@H](CO)C(=O)N[C@@H](CC(N)=O)C(=O)N[C@H](C(=O)N[C@@H](Cc1ccc(O)cc1)C(N)=O)[C@@H](C)O)C(C)C)[C@@H](C)O [Example 79, N-alpha-[(S)-4-Carboxy-4-(19-carboxynonadecanoylamino)butyryl]-[Glu14,His17,Arg18]-pramlintide] ({C20 diacid-γGlu}-KCNTATCATQRLAEFLHRSSNNFGPILPPTNVGSNTY-NH2; disulfide 2-7 (inferred))
2 | 10.3 | 0.089 | 168 (≈ 787 µg/mL) | 130 (≈ 609 µg/mL) | 126 (≈ 590 µg/mL) | 126 (≈ 590 µg/mL) | 165 (≈ 773 µg/mL) | > 200 | > 200 | > 200 | > 200 | > 200 | 0.101 | – | – | – | – | CC[C@H](C)[C@H](NC(=O)[C@H](CCCCNC(=O)COCCOCCNC(=O)COCCOCCNC(=O)CC[C@H](NC(=O)CCCCCCCCCCCCCCCCC(=O)O)C(=O)O)NC(=O)CNC(=O)[C@H](Cc1ccccc1)NC(=O)[C@H](CC(N)=O)NC(=O)[C@H](CO)NC(=O)[C@H](CO)NC(=O)[C@H](CO)NC(=O)[C@H](Cc1c[nH]cn1)NC(=O)[C@@H](NC(=O)[C@H](CC(C)C)NC(=O)[C@H](Cc1ccccc1)NC(=O)[C@H](CCC(=O)O)NC(=O)[C@H](C)NC(=O)[C@H](CC(C)C)NC(=O)[C@H](CCCNC(=N)N)NC(=O)[C@H](CCC(N)=O)NC(=O)[C@@H](NC(=O)[C@H](C)NC(=O)[C@@H]1CSSC[C@H](NC(=O)[C@@H](N)CCCCN)C(=O)N[C@@H](CC(N)=O)C(=O)N[C@@H]([C@@H](C)O)C(=O)N[C@@H](C)C(=O)N[C@@H]([C@@H](C)O)C(=O)N1)[C@@H](C)O)C(C)C)C(=O)N[C@@H](CC(C)C)C(=O)N1CCC[C@H]1C(=O)N1CCC[C@H]1C(=O)N[C@H](C(=O)N[C@@H](CC(N)=O)C(=O)N[C@H](C(=O)NCC(=O)N[C@@H](CO)C(=O)N[C@@H](CC(N)=O)C(=O)N[C@H](C(=O)N[C@@H](Cc1ccc(O)cc1)C(N)=O)[C@@H](C)O)C(C)C)[C@@H](C)O [Example 72, N-epsilon25-[2-(2-{2-[2-(2-{2-[(S)-4-Carboxy-4-(17-carboxyheptadecanoylamino)butyrylamino]ethoxy}ethoxy)acetylamino]ethoxy}ethoxy)acetyl]-[Glu14,Ser21,Lys25]-pramlintide] (H-KCNTATCATQRLAEFLVHSSSNFGK([AEEA-AEEA-γGlu-C18 diacid])ILPPTNVGSNTY-NH2; disulfide 2-7 (inferred); N-terminus assumed)
3 | 28.7 | 0.061 | > 200 | > 200 | > 200 | > 200 | > 200 | > 200 | > 200 | > 200 | > 200 | > 200 | 0.6 | 28.7 | 28.7 | > 200 | – | CC[C@H](C)[C@H](NC(=O)[C@@H]1CCCN1C(=O)CNC(=O)[C@H](Cc1ccccc1)NC(=O)[C@H](CC(N)=O)NC(=O)[C@H](CC(N)=O)NC(=O)[C@H](CO)NC(=O)[C@H](CO)NC(=O)[C@H](Cc1c[nH]cn1)NC(=O)[C@H](CCCNC(=N)N)NC(=O)[C@H](CC(C)C)NC(=O)[C@H](Cc1ccccc1)NC(=O)[C@H](CCC(=O)O)NC(=O)[C@H](C)NC(=O)[C@H](CC(C)C)NC(=O)[C@H](CCCNC(=N)N)NC(=O)[C@H](CCC(N)=O)NC(=O)[C@@H](NC(=O)[C@H](C)NC(=O)[C@@H]1CSSC[C@H](NC(=O)[C@H](CCCCN)NC(=O)CC[C@H](NC(=O)CCCCCCCCCCCCCCCCC(=O)O)C(=O)O)C(=O)N[C@@H](CC(N)=O)C(=O)N[C@@H]([C@@H](C)O)C(=O)N[C@@H](C)C(=O)N[C@@H]([C@@H](C)O)C(=O)N1)[C@@H](C)O)C(=O)N[C@@H](CC(C)C)C(=O)N1CCC[C@H]1C(=O)N1CCC[C@H]1C(=O)N[C@H](C(=O)N[C@@H](CC(N)=O)C(=O)N[C@H](C(=O)NCC(=O)N[C@@H](CO)C(=O)N[C@@H](CC(N)=O)C(=O)N[C@H](C(=O)N[C@@H](Cc1ccc(O)cc1)C(N)=O)[C@@H](C)O)C(C)C)[C@@H](C)O [Example 51, N-alpha-[(S)-4-Carboxy-4-(17-carboxyheptadecanoylamino)butyryl]-[Glu14,Arg17]-pramlintide] ({C18 diacid-γGlu}-KCNTATCATQRLAEFLRHSSNNFGPILPPTNVGSNTY-NH2; disulfide 2-7 (inferred); C-terminus assumed)
4 | 1.7 | 0.921 | 1 (≈ 4.4 µg/mL) | 1 (≈ 4.4 µg/mL) | – | 1 (≈ 4.4 µg/mL) | 1 (≈ 4.4 µg/mL) | – | > 200 | > 200 | > 200 | > 200 | 0.349 | – | – | – | 1 (≈ 4.4 µg/mL) | CC[C@H](C)[C@H](NC(=O)[C@@H]1CCCN1C(=O)CNC(=O)[C@H](Cc1ccccc1)NC(=O)[C@H](CC(N)=O)NC(=O)[C@H](CO)NC(=O)[C@H](CO)NC(=O)[C@H](CO)NC(=O)[C@H](Cc1c[nH]cn1)NC(=O)[C@@H](NC(=O)[C@H](CC(C)C)NC(=O)[C@H](Cc1ccccc1)NC(=O)[C@H](CCC(=O)O)NC(=O)[C@H](C)NC(=O)[C@H](CC(C)C)NC(=O)[C@H](CCCNC(=N)N)NC(=O)[C@H](CCC(N)=O)NC(=O)[C@@H](NC(=O)[C@H](C)NC(=O)[C@@H]1CSSC[C@H](NC(=O)[C@H](Cc2c[nH]cn2)NC(=O)CC[C@H](NC(=O)CCCCCCCCCCCCCCCCCCC(=O)O)C(=O)O)C(=O)N[C@@H](CC(N)=O)C(=O)N[C@@H]([C@@H](C)O)C(=O)N[C@@H](C)C(=O)N[C@@H]([C@@H](C)O)C(=O)N1)[C@@H](C)O)C(C)C)C(=O)N[C@@H](CC(C)C)C(=O)N[C@@H](CO)C(=O)N[C@@H](CO)C(=O)N[C@H](C(=O)N[C@@H](CC(N)=O)C(=O)N[C@H](C(=O)NCC(=O)N[C@@H](CO)C(=O)N[C@@H](Cc1c[nH]cn1)C(=O)N[C@H](C(=O)N[C@@H](Cc1ccc(O)cc1)C(N)=O)[C@@H](C)O)C(C)C)[C@@H](C)O [Example 110, N-alpha-[(S)-4-Carboxy-4-(19-carboxynonadecanoylamino)butyryl]-[His1,Glu14,Ser21,Ser28,Ser29,His35]-pramlintide] ({C20 diacid-γGlu}-HCNTATCATQRLAEFLVHSSSNFGPILSSTNVGSHTY-NH2; disulfide 2-7 (inferred))
